# Results from publication PMC7650622, “3D-Printed Bubble-Free Perfusion Cartridge System for Live-Cell Imaging” (Sensors (Basel, Switzerland), 2020).
# Target: T1, Or13a cells (OR from Drosophila melanogaster with Orco) (Drosophila melanogaster, UniProt Q9VXL0)
# T1 construct: with Odorant receptor coreceptor
# T1 sequence (Q9VXL0 1-418): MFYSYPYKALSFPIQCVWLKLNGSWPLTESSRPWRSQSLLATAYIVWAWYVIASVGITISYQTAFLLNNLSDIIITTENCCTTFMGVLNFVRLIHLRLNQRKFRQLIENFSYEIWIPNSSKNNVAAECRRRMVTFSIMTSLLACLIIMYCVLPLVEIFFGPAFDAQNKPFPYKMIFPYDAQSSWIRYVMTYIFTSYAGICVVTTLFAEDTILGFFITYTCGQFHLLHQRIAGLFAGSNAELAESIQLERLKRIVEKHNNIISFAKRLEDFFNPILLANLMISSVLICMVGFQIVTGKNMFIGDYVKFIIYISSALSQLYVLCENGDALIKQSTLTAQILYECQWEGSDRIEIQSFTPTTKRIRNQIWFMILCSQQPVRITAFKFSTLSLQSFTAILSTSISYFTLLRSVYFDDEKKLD
# T1 sequence (Q9VNB5 1-486 partner): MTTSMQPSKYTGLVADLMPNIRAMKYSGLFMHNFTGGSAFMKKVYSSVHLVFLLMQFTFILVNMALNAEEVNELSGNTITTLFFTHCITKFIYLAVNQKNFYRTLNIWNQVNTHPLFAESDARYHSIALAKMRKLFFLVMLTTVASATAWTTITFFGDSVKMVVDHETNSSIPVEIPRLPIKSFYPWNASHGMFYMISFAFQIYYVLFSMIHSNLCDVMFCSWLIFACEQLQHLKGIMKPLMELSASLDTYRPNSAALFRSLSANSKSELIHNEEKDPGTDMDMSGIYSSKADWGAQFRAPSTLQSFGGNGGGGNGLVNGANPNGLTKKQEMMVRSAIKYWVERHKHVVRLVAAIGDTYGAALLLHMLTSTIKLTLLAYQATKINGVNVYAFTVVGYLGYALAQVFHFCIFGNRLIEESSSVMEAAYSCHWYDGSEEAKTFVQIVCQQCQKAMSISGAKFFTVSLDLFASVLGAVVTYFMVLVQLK
# Assay: GCaMP6s calcium imaging of Sf21 cells, dose-response
# Type: cell-based
structure (smiles),measurement,value
C=CC(O)CCCCC (stereo not shown) [1-octen-3-ol],EC50,8.37 µM
